Activity calls are given as the source filed them. The rule behind the calls is not given here.
Test system: rodent carcinogenicity bioassays, tumor incidence
Experiment: CCRIS carcinogenicity studies
Conditions: Dose: 0, Dose: 0
Outline: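 Archive of carcinogenicity, mutagenicity, tumor promotion and tumor inhibition results drawn from journals, NCI reports and other sources, expert-reviewed; covers 1985-2011 and is no longer updated.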

Compound: CO/N=C(/C1=NOCCO1)c1ccccc1Oc1ncnc(Oc2ccccc2Cl)c1F
- carcinogen call (Species: Mouse, Strain/Sex: CD-1/Female (50/Group), Route: Oral, 29.5, 204.0, 1265.1 mg/kg/day of 94.3% - 94.5% fluoxastrobin in diet for 18 mo, study duration 18 mo, 29.5, 204.0, 1265.1 mg/kg/day of 94.3% - 94.5% fluoxastrobin in diet for 18 mo, study duration 18 mo): inactive; negative
- carcinogen call (Species: Mouse, Strain/Sex: CD-1/Male (50/Group), Route: Oral, 18.6, 135.4, 775.6 mg/kg/day of 94.3% - 94.5% fluoxastrobin in diet for 18 mo, study duration 18 mo, 18.6, 135.4, 775.6 mg/kg/day of 94.3% - 94.5% fluoxastrobin in diet for 18 mo, study duration 18 mo): inactive; negative
- carcinogen call (Species: Rat, Strain/Sex: Wistar/Female (50/Group), Route: Oral, 6.9, 35.2, 181.3, 1083.2 mg/kg/day of 94.3-94.6% fluoxastrobin in diet for 2 yr, study duration 2 yr, 6.9, 35.2, 181.3, 1083.2 mg/kg/day of 94.3-94.6% fluoxastrobin in diet for 2 yr, study duration 2 yr, Tumor Site: Type of Lesion: Uterus: adenocarcinoma (highest dose only)): active; positive
- carcinogen call (Species: Rat, Strain/Sex: Wistar/Male (50/Group), Route: Oral, 2.1, 5.2, 53.0, 271.9 mg/kg/day of 94.3-94.6% fluoxastrobin in diet for 2 yr, study duration 2 yr, 2.1, 5.2, 53.0, 271.9 mg/kg/day of 94.3-94.6% fluoxastrobin in diet for 2 yr, study duration 2 yr): inactive; negative

Compound: NCC(=O)O
- carcinogen call (Species: RAT, Strain/Sex: F344/FEMALE, Route: ORAL, 2.5, 5% IN DRINKING WATER FOR 108 WK (STUDY DURATION: 108 WK), 2.5, 5% IN DRINKING WATER FOR 108 WK (STUDY DURATION: 108 WK)): inactive; negative
- carcinogen call (Species: RAT, Strain/Sex: F344/MALE, Route: ORAL, 2.5, 5% IN DRINKING WATER FOR 108 WK (STUDY DURATION: 108 WK), 2.5, 5% IN DRINKING WATER FOR 108 WK (STUDY DURATION: 108 WK)): inactive; negative

Compound: OCc1ccc2ccc3cccc4ccc1c2c34
- carcinogen call (Species: RAT, Strain/Sex: SPRAGUE-DAWLEY/FEMALE, Route: SUBCUTANEOUS, 0.2 UMOL IN 0.1 ML SESAME OIL:DMSO (9:1) 1/2 D FOR 20 DOSES (STUDY DURATION: 52 WK)): inactive; negative

Compound: O=[N+]([O-])NC1=NCCN1Cc1ccc(Cl)nc1
- carcinogen call (Species: Mouse, Strain/Sex: B6C3F1/Female (60/Group), Route: Oral, 100, 330, 1000 ppm and 0, 2000 ppm (2 related studies) of 95.3% imidacloprid in diet for 24 mo, study duration 24 mo, 100, 330, 1000 ppm and 0, 2000 ppm (2 related studies) of 95.3% imidacloprid in diet for 24 mo, study duration 24 mo): inactive; negative
- carcinogen call (Species: Mouse, Strain/Sex: B6C3F1/Male (60/Group), Route: Oral, 100, 330, 1000 ppm and 0, 2000 ppm (2 related studies) of 95.3% imidacloprid in diet for 24 mo, study duration 24 mo, 100, 330, 1000 ppm and 0, 2000 ppm (2 related studies) of 95.3% imidacloprid in diet for 24 mo, study duration 24 mo): inactive; negative
- carcinogen call (Species: Rat, Strain/Sex: Wistar/Female (60/Group), Route: Oral, 100, 300, 900 ppm and 0;1800 ppm (2 related studies) of 94.3% imidacloprid in diet for 24 mo, study duration 24 mo, 100, 300, 900 ppm and 0;1800 ppm (2 related studies) of 94.3% imidacloprid in diet for 24 mo, study duration 24 mo): inactive; negative
- carcinogen call (Species: Rat, Strain/Sex: Wistar/Male (60/Group), Route: Oral, 100, 300, 900 ppm and 0, 1800 ppm (2 related studies) of 94.3% imidacloprid in diet for 24 mo, study duration 24 mo, 100, 300, 900 ppm and 0, 1800 ppm (2 related studies) of 94.3% imidacloprid in diet for 24 mo, study duration 24 mo, Tumor Site: Type of Lesion: Liver: Cholangiocellular carcinoma (2/60 at 1800 ppm vs 0/60 all other groups)): active; positive

Compound: Nc1cc(Cl)c(N)c(Cl)c1
- carcinogen call (Species: MOUSE, Strain/Sex: B6C3F1/FEMALE, Route: ORAL, 1000, 3000 PPM IN DIET, 1000, 3000 PPM IN DIET, Tumor Site: Type of Lesion: LIVER: HEPATOCELLULAR ADENOMA OR CARCINOMA): active; positive
- carcinogen call (Species: MOUSE, Strain/Sex: B6C3F1/MALE, Route: ORAL, 1000, 3000 PPM IN DIET, 1000, 3000 PPM IN DIET, Tumor Site: Type of Lesion: LIVER: HEPATOCELLULAR ADENOMA OR CARCINOMA): active; positive
- carcinogen call (Species: RAT, Strain/Sex: F344/FEMALE, Route: ORAL, 2000, 6000 PPM IN DIET, 2000, 6000 PPM IN DIET): inactive; negative
- carcinogen call (Species: RAT, Strain/Sex: F344/MALE, Route: ORAL, 1000, 2000 PPM IN DIET, 1000, 2000 PPM IN DIET): inactive; negative

Compound: CC1(C)COC1=O
- carcinogen call (Species: MOUSE, Strain/Sex: B6C3F1/FEMALE, Route: GAVAGE, 75, 150 MG/KG, 75, 150 MG/KG): inactive; negative
- carcinogen call (Species: MOUSE, Strain/Sex: B6C3F1/MALE, Route: GAVAGE, 75, 150 MG/KG, 75, 150 MG/KG): inactive; negative
- carcinogen call (Species: RAT, Strain/Sex: F344/FEMALE, Route: GAVAGE, 150, 300 MG/KG, 150, 300 MG/KG, Tumor Site: Type of Lesion: STOMACH: SQUAMOUS CELL PAPILLOMA OR SQUAMOUS CELL CARCINOMA, UTERUS: ENDOMETRIAL STROMAL POLYP): active; positive
- carcinogen call (Species: RAT, Strain/Sex: F344/MALE, Route: GAVAGE, 150, 300 MG/KG, 150, 300 MG/KG, Tumor Site: Type of Lesion: STOMACH: SQUAMOUS CELL PAPILLOMA OR SQUAMOUS CELL CARCINOMA, TESTES: INTERSTITIAL CELL TUMOR): active; positive

Compound: CCCCCc1cc(O)c2c(c1)OC(C)(C)[C@@H]1CCC(C)=C[C@@H]21
- carcinogen call (Species: MOUSE, Strain/Sex: B6C3F1/FEMALE, Route: GAVAGE, 125, 250, 500 MG/KG BW IN CORN OIL FOR 105-106 WK (STUDY DURATION: 105-106 WK), 125, 250, 500 MG/KG BW IN CORN OIL FOR 105-106 WK (STUDY DURATION: 105-106 WK), Tumor Site: Type of Lesion: THYROID GLAND: FOLLICULAR CELL ADENOMA): equivocal
- carcinogen call (Species: MOUSE, Strain/Sex: B6C3F1/MALE, Route: GAVAGE, 125, 250, 500 MG/KG BW IN CORN OIL FOR 104-105 WK (STUDY DURATION: 104-105 WK), 125, 250, 500 MG/KG BW IN CORN OIL FOR 104-105 WK (STUDY DURATION: 104-105 WK), Tumor Site: Type of Lesion: THYROID GLAND: FOLLICULAR CELL ADENOMA): equivocal
- carcinogen call (Species: RAT, Strain/Sex: F344/FEMALE, Route: GAVAGE, 12.5, 25, 50 MG/KG BW IN CORN OIL FOR 104-105 WK (STUDY DURATION: 104-105 WK), 12.5, 25, 50 MG/KG BW IN CORN OIL FOR 104-105 WK (STUDY DURATION: 104-105 WK)): inactive; negative
- carcinogen call (Species: RAT, Strain/Sex: F344/MALE, Route: GAVAGE, 12.5, 25, 50 MG/KG BW IN CORN OIL FOR 104-105 WK (STUDY DURATION: 104-105 WK), 12.5, 25, 50 MG/KG BW IN CORN OIL FOR 104-105 WK (STUDY DURATION: 104-105 WK)): inactive; negative

— PubChem BioAssay AID1259411 (Chemical Carcinogenesis Research Information System (CCRIS), 2018)
